The target of the assay is T1, human APJ receptor (Homo sapiens, UniProt P35414).
T1 construct: expressed in transfected cells; host or cells: HEK293
T1 sequence (P35414 1-380): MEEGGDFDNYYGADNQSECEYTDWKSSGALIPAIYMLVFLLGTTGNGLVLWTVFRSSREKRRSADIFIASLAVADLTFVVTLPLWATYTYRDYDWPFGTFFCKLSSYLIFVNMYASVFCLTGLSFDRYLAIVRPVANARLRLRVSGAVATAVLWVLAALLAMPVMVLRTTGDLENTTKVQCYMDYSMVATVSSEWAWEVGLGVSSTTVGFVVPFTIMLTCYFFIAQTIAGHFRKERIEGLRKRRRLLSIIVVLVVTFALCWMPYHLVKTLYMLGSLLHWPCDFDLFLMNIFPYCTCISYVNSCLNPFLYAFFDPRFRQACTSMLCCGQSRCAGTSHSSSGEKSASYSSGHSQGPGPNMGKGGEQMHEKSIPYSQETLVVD
Kind of assay: Intracellular cAMP Accumulation Assay (APJ hcAMP, HTRF). It counts as cell-based. The settings on record: human APJ, intracellular cAMP accumulation; read-out: hAPJ cAMP EC50 Potency range. Here is the method:
Intracellular cAMP Accumulation Assay
HEK293 cells stably expressing human APJ receptor were used to assess the activity of compounds. Cultured cells were detached and resuspended in the cAMP
Homogeneous Time-Resolved Fluorescence (HTRF) assay buffer (Cisbio cat; #62AM4PEJ). The assay was performed in 384-well assay plates (Perkin-Elmer; cat #6008289) according to assay protocol provided by the manufacturer. Serial dilutions of a compound together with assay buffer containing […] IBMX and 2 μM forskolin were added to each well containing 5,000 cells and incubated for 30 minutes at room temperature. Subsequently, cAMP D2 reagent was added in the lysis buffer followed by the EuK antibody (Cisbio; cat #62AM4PEJ) and incubated for 60 min. The fluorescence emission ratio was measured using fluorometer. The intracellular cAMP concentrations (compound-stimulated inhibition of forskolin-mediated cAMP production) were calculated by extrapolation from a standard curve using known cAMP concentrations. The EC50 values were obtained by fitting the data to a sigmoidal concentration-response curve with variable slope.
The EC50 value of each compound is presented at the end of the example description.
The biological activity of the exemplified compounds of this invention determined by the assay described above is shown at the end of each example.

The text below walks through data of patent US10590113B2, “6-hydroxy-4-oxo-1,4-dihydropyrimidine-5-carboxamides as APJ agonists” (priority 2016, dated 2020).

The structures appear in SMILES notation.

Consider `COc1cccc(OC)c1-n1c(COC(C)C)nc(=O)c(C(=O)N2CCC(c3ccccc3C(F)(F)F)C2)c1O` (single isomer, unassigned) [Example 101, 1-(2,6-dimethoxyphenyl)-6-hydroxy-2-[(propan-2-yloxy)methyl]-5-{3-[2-(trifluoromethyl)phenyl]pyrrolidine-1-carbonyl}-1,4-dihydropyrimidin-4-one], for which the EC50 (commonly the midpoint of the concentration-response curve) was 0.01 to 10 nM.

For `COc1cccc(OC)c1-n1c(COC(C)C)nc(=O)c(C(=O)N2CCC(c3ccc(F)cc3)C2)c1O` (single isomer, unassigned) [Example 102, 1-(2,6-dimethoxyphenyl)-5-[3-(4-fluorophenyl)pyrrolidine-1-carbonyl]-6-hydroxy-2-[(propan-2-yloxy)methyl]-1,4-dihydropyrimidin-4-one], the EC50 lay within 0.01 to 10 nM.

For the compound `COc1cccc(OC)c1-n1c(COC2CC2)nc(=O)c(C(=O)N2CCC(c3ccc(F)cc3)C2)c1O` (single isomer, unassigned) [Example 103, 2-(cyclopropoxymethyl)-1-(2,6-dimethoxyphenyl)-5-[3-(4-fluorophenyl)pyrrolidine-1-carbonyl]-6-hydroxy-1,4-dihydropyrimidin-4-one], the EC50 was 0.01 to 10 nM.

As to `COc1cccc(OC)c1-n1c(COC(C)C)nc(=O)c(C(=O)N2CCC(c3ccccc3C)C2)c1O` (single isomer, unassigned) [Example 105, 1-(2,6-dimethoxyphenyl)-6-hydroxy-5-[3-(2-methylphenyl)pyrrolidine-1-carbonyl]-2-[(propan-2-yloxy)methyl]-1,4-dihydropyrimidin-4-one], the EC50 lay within 0.01 to 10 nM.

As for `COc1cccc(OC)c1-n1c(COC(C)C)nc(=O)c(C(=O)N2CCC(c3ccc(C#N)cc3)C2)c1O` (single isomer, unassigned) [Example 107, 4-{1-[1-(2,6-dimethoxyphenyl)-6-hydroxy-4-oxo-2-[(propan-2-yloxy)methyl]-1,4-dihydropyrimidine-5-carbonyl]pyrrolidin-3-yl}benzonitrile], the EC50 was in the range of 0.01 to 10 nM.

In the case of `COc1cccc(OC)c1-n1c(COC(C)C)nc(=O)c(C(=O)N2CCC(c3ccc(C#N)cc3)C2)c1O` (single isomer, unassigned) [Example 108, 4-{1-[1-(2,6-dimethoxyphenyl)-6-hydroxy-4-oxo-2-[(propan-2-yloxy)methyl]-1,4-dihydropyrimidine-5-carbonyl]pyrrolidin-3-yl}benzonitrile], the EC50 was 0.01 to 10 nM.

For the compound `CCCCc1nc(=O)c(C(=O)N2CCC(c3cccc(F)c3)C2)c(O)n1[C@@H](CC)c1ccccc1` (single isomer, unassigned) [Example 115], the EC50 was 0.01 to 10 nM.

Turning to `CCCCc1nc(=O)c(C(=O)N2CCC(c3cccc(F)c3)C2)c(O)n1[C@@H](CC)c1ccccc1` (single isomer, unassigned) [Example 119], the EC50 lay in the range of 0.01 to 10 nM.

`COc1ccccc1C1CCN(C(=O)c2c(O)n(-c3c(OC)cccc3OC)c(COC(C)C)nc2=O)C1` (single isomer, unassigned) [Example 160, 1-(2,6-dimethoxyphenyl)-6-hydroxy-5-[3-(2-methoxyphenyl)pyrrolidine-1-carbonyl]-2-[(propan-2-yloxy)methyl]-1,4-dihydropyrimidin-4-one]: the EC50 was 0.01 to 10 nM.

In the case of `COc1ccccc1C1CCN(C(=O)c2c(O)n(-c3c(OC)cccc3OC)c(COC(C)C)nc2=O)C1` (single isomer, unassigned) [Example 161, 1-(2,6-dimethoxy-phenyl)-6-hydroxy-5-[3-(2-methoxy-phenyl)pyrrolidine-1-carbonyl]-2-[(propan-2-yloxy)methyl]-1,4-dihydropyrimidin-4-one], the EC50 lay within 0.01 to 10 nM.

With `COc1cccc(OC)c1-n1c(COC(C)C)nc(=O)c(C(=O)N2CCC(c3ccc(F)cc3F)C2)c1O` (single isomer, unassigned) [Example 162, 5-[3-(2,4-difluorophenyl)pyrrolidine-1-carbonyl]-1-(2,6-dimethoxyphenyl)-6-hydroxy-2-[(propan-2-yloxy)methyl]-1,4-dihydropyrimidin-4-one], the EC50 lay in the range of 0.01 to 10 nM.

For the compound `COc1cccc(OC)c1-n1c(COC(C)C)nc(=O)c(C(=O)N2CCC(c3ccc(F)cc3F)C2)c1O` (single isomer, unassigned) [Example 163, 5-[3-(2,4-difluorophenyl)pyrrolidine-1-carbonyl]-1-(2,6-dimethoxyphenyl)-6-hydroxy-2-[(propan-2-yloxy)methyl]-1,4-dihydropyrimidin-4-one], the EC50 fell in the range of 0.01 to 10 nM.

As for `COc1cccc(OC)c1-n1c(COC(C)C)nc(=O)c(C(=O)N2CCC(c3c(F)cccc3F)C2)c1O` (single isomer, unassigned) [Example 164, 5-[3-(2,6-difluorophenyl)pyrrolidine-1-carbonyl]-1-(2,6-dimethoxyphenyl)-6-hydroxy-2-[(propan-2-yloxy)methyl]-1,4-dihydropyrimidin-4-one], the EC50 fell in the range of 0.01 to 10 nM.

For the compound `COc1cccc(OC)c1-n1c(COC(C)C)nc(=O)c(C(=O)N2CCC(c3ccccc3C#N)C2)c1O` (single isomer, unassigned) [Example 165, 2-{1-[1-(2,6-dimethoxyphenyl)-6-hydroxy-4-oxo-2-[(propan-2-yloxy)methyl]-1,4-dihydropyrimidine-5-carbonyl]pyrrolidin-3-yl}benzonitrile], the EC50 was 0.01 to 10 nM.

`COc1cccc(OC)c1-n1c(COC(C)C)nc(=O)c(C(=O)N2CCC(c3c(F)cccc3F)C2)c1O` (single isomer, unassigned) [Example 166, 5-[3-(2,6-difluorophenyl)pyrrolidine-1-carbonyl]-1-(2,6-dimethoxyphenyl)-6-hydroxy-2-[(propan-2-yloxy)methyl]-1,4-dihydropyrimidin-4-one]: the EC50 fell in the range of 0.01 to 10 nM.

On to `COc1cccc(OC)c1-n1c(COC(C)C)nc(=O)c(C(=O)N2CCC(c3ccccc3C#N)C2)c1O` (single isomer, unassigned) [Example 167], for which the EC50 was 0.01 to 10 nM.

`COc1cccc(OC)c1-n1c(CCC2CC2)nc(=O)c(C(=O)N2CCC(c3ncc(F)cc3F)C2)c1O` (single isomer, unassigned) [Example 168, 2-(2-cyclopropylethyl)-5-[3-(3,5-difluoropyridin-2-yl)pyrrolidine-1-carbonyl]-1-(2,6-dimethoxyphenyl)-6-hydroxy-1,4-dihydropyrimidin-4-one]: the EC50 lay within 0.01 to 10 nM.

`COc1cccc(OC)c1-n1c(CCC2CC2)nc(=O)c(C(=O)N2CCC(c3ncc(F)cc3F)C2)c1O` (single isomer, unassigned) [Example 169, 2-(2-cyclopropylethyl)-5-[3-(3,5-difluoropyridin-2-yl)pyrrolidine-1-carbonyl]-1-(2,6-dimethoxyphenyl)-6-hydroxy-1,4-dihydropyrimidin-4-one]: the EC50 fell in the range of 0.01 to 10 nM.

`COc1cccc(OC)c1-n1c(CCC2CC2)nc(=O)c(C(=O)N2CCC(c3ccc(Cl)cn3)C2)c1O` (single isomer, unassigned) [Example 170, 5-[3-(5-chloropyridin-2-yl)pyrrolidine-1-carbonyl]-2-(2-cyclopropylethyl)-1-(2,6-dimethoxyphenyl)-6-hydroxy-1,4-dihydropyrimidin-4-one]: the EC50 fell in the range of 0.01 to 10 nM.

As to `COc1cccc(OC)c1-n1c(CCC2CC2)nc(=O)c(C(=O)N2CCC(c3ccc(Cl)cn3)C2)c1O` (single isomer, unassigned) [Example 171, 5-[3-(5-chloropyridin-2-yl)pyrrolidine-1-carbonyl]-2-(2-cyclopropylethyl)-1-(2,6-dimethoxyphenyl)-6-hydroxy-1,4-dihydropyrimidin-4-one], the EC50 was 0.01 to 10 nM.

On to `COc1cccc(OC)c1-n1c(CCC2CC2)nc(=O)c(C(=O)N2CCC(c3ccc(F)cn3)C2)c1O` (single isomer, unassigned) [Example 175, 2-(2-cyclopropylethyl)-1-(2,6-dimethoxyphenyl)-5-[3-(5-fluoropyridin-2-yl)pyrrolidine-1-carbonyl]-6-hydroxy-1,4-dihydropyrimid in-4-one], for which the EC50 lay within 0.01 to 10 nM.

For the compound `COc1cccc(OC)c1-n1c(CCC2CC2)nc(=O)c(C(=O)N2CCC(c3ncc(Cl)cc3F)C2)c1O` (single isomer, unassigned) [Example 176, 5-[3-(5-chloro-3-fluoropyridin-2-yl)pyrrolidine-1-carbonyl]-2-(2-cyclopropylethyl)-1-(2,6-dimethoxyphenyl)-6-hydroxy-1,4-dihydropyrimidin-4-one], the EC50 lay in the range of 0.01 to 10 nM.

For `COc1cccc(OC)c1-n1c(CCC2CC2)nc(=O)c(C(=O)N2CCC(c3ccc(F)cn3)C2)c1O` (single isomer, unassigned) [Example 177, 2-(2-cyclopropylethyl)-1-(2,6-dimethoxyphenyl)-5-[3-(5-fluoropyridin-2-yl)pyrrolidine-1-carbonyl]-6-hydroxy-1,4-dihydropyrimidin-4-one], the EC50 lay within 0.01 to 10 nM.
